Measured values published in article PMC5920042, “KH176 Safeguards Mitochondrial Diseased Cells from Redox Stress-Induced Cell Death by Interacting with the Thioredoxin System/Peroxiredoxin Enzyme Machinery” (Scientific Reports, 2018).
Where “and” joins values, the source holds several entries; their conditions need not be identical. Equal values may be shown once.

Key:
[1] = test system: P4 cell line; test: GSH measurements (GSH-Glo) under BSO; assay type: cell-based, human; conditions: increasing BSO 24 h, 1 µM compound
Description: Cells were seeded at a density of 4 × 10^3 cells/well into 96-wells white plates (#655098, Greiner Bio-one). After 24 h the cells were treated with semi-logarithmic dilutions of BSO up to a concentration of 100 µM alone or in co-incubation with a fixed amount of the test compound. 24 h after the treatment, GSH levels were measured with the GSH-Glo™ Glutathione Assay (# V6911, Promega) according to the manufacturer instructions. Luminescence was measured on a scanning microplate reader (BMG FLUOstar Omega).

[2] = Single dose pharmacokinetics and bioavailability study; assay type: in vivo, male Sprague Dawley rats; conditions: rat, plasma
Description: (§1) Pharmacokinetics and toxicokinetics measurements were performed by the commercial Contract Research Organizations Sai Life Sciences and WuXi AppTec, respectively, according to their standard protocols and in accordance with relevant guidelines and regulations. C57 BL/6 mice, Sprague Dawley rats, and Beagle dogs were studied.

[3] = test system: P4 cell line; test: Redox Stress Survival assay (BSO-induced cell death, Calcein AM viability); assay type: cell-based, human
Description: Cells were seeded at a density of 4 × 10^3 cells/well into 96-wells black plates and incubated for 24 h. To induce redox stress, semi-logarithmic dilutions of buthionine sulphoximine (BSO, #B2515, Sigma Aldrich) up to 100 µM were added to the cells in culture medium and incubated for 24 h. Cell viability was assessed by quantification of cellular conversion of Calcein AM into fluorescent Calcein. Briefly, after having discarded the BSO containing medium, cells were washed once with M199 without phenol red and loaded with 2 µM Calcein AM (#65-0853-39, Affimetrix eBioscience) in M199 without phenol red for 25 min. At the end of the incubation period, the excess of the dye was washed with M199 without phenol red and Calcein fluorescence was measured with a scanning microplate reader (BMG FLUOstar Omega; Ex. 480 nm, Em. 520 nm). For compound screening and target identification measurements cells were treated with 200 µM BSO alone or in co-incubation with semi-logarithmic dilutions of the test compound. Additionally, where indicated, increasing doses of Auranofin (AFN, #BML-EI206-0100, Enzo) or Aurothioglucose (ATG, #A0606, Sigma Aldrich) were co-incubated with BSO and the test compound. In all cases, cell viability was assessed 24 h after the treatment.

[4] = test system: P4 cell line; test: Cellular ROS assay (DCFH-DA); assay type: cell-based, human; conditions: P4 cells, 24 h compound treatment
Description: The cells were then treated for 72 h (or shorter as indicated) with culture medium containing semi-logarithmic dilutions of the test compound. Alternatively, 3 × 10^3 cells/well were seeded when cells were treated for 24 h only. At the end of the incubation period, cells were loaded with 40 µM DCFH-DA (#D6883, Sigma-Aldrich). in M199 without phenol red for 30 min. The excess of the dye was washed with ice-cold M199 without phenol red and the cells were lysed with 100 µl/well of ice-cold 0.2% Triton X-100 in M199 without phenol red after 10 min incubation in ice. Cellular debris was spun down by centrifugation at 2600 g, 5 min, +4 °C and 90 µl/well of cell lysate were transferred to a black 96-wells plate and DCF fluorescence was measured on a scanning microplate reader (BMG FLUOstar Omega; Ex. 480 nm, Em. 520 nm).

[5] = 28-day repeat oral dose toxicity study, toxicokinetics; assay type: in vivo, Sprague Dawley rats; conditions: rat
Description: as §1

[6] = test system: primary human skin fibroblasts; test: CumOOH induced lipid peroxidation (bodipy 581/591 C11); assay type: cell-based; conditions: 30 µM cumOOH
Description: The cells were seeded at a density of 3 × 10^3 cells/well into 96-wells black plates. After 24 h, the cells were coincubated with 500 nM bodipy 581/591 C11 (#D3861, Thermo Fisher) and different amounts of KH compound in M199 without phenol red. This medium was used in all subsequent washes and incubations. After 30 min. incubation the cells were washed twice and subsequently incubated with 30 μM cumene hydroperoxide (cumOOH). For background subtractions cells with the dye but without cumOOH were used. After 30 minutes incubation and two washes oxidized bodipy 581/591 C11 was quantified on an automated bioimager (BD Pathway 855), by using a 20x objective and Ex. 488/10 nm, Em. FURA/FITC. Total cellular fluorescence per well was normalized on the number of cellular pixels/well and normalized on the incubation with probe and cumOOH but without compound (vehicle set as 100%). Experiments were performed at least three times with 3 wells per experiment.

[7] = KH176 25 mg/kg/dose BID oral, F, Day 1, plasma
[8] = KH176 25 mg/kg/dose BID oral, F, Day 28, plasma
[9] = KH176 25 mg/kg/dose BID oral, M, Day 1, plasma
[10] = KH176 25 mg/kg/dose BID oral, M, Day 28, plasma
[11] = KH176 75 mg/kg/dose BID oral, F, Day 1, plasma
[12] = KH176 75 mg/kg/dose BID oral, F, Day 28, plasma
[13] = KH176 75 mg/kg/dose BID oral, M, Day 1, plasma
[14] = KH176 75 mg/kg/dose BID oral, M, Day 28, plasma
[15] = KH176 250 mg/kg/dose BID oral, F, Day 1, plasma
[16] = KH176 250 mg/kg/dose BID oral, F, Day 28, plasma
[17] = KH176 250 mg/kg/dose BID oral, M, Day 1, plasma
[18] = KH176 250 mg/kg/dose BID oral, M, Day 28, plasma

Structure (SMILES): CC1=C(C)C(=O)C(CC[C@](C)(O)C(=O)N[C@@H]2CCCNC2)=C(C)C1=O [KH176m]
- GSH level under BSO [1]: remained unaffected
- AUCINF ([2]; KH176 2 mg/kg i.v.): 206.1 ng·h/mL
- AUClast ([2]; KH176 2 mg/kg i.v.): 150.2 ng·h/mL
- T1/2 ([2]; KH176 2 mg/kg i.v.): 2.3 h
- C0 (i.v.) ([2]; KH176 2 mg/kg i.v., back extrapolated): 59.7 ng/mL
- AUCINF ([2]; KH176 10 mg/kg p.o.): 1503.2 ng·h/mL
- AUClast ([2]; KH176 10 mg/kg p.o.): 1441.1 ng·h/mL
- Cmax (p.o.) ([2]; KH176 10 mg/kg p.o.): 396.4 ng/mL
- Tmax ([2]; KH176 10 mg/kg p.o.): 0.5 h
- EC50 ([3]; P4 cells, 200 µM BSO, 24 h): 38 nM and 38.7 nM
- Viability of patient cells under BSO ([3]; increasing BSO 24 h, 1 µM compound): fully protected
- IC50 [4]: 250 nM and 255 nM
- AUC0–24 h Ratio KH176m/KH176 ([5]; KH176 25 mg/kg/dose BID oral, F, Day 1): 0.091
- AUC0–24 h [5, 7]: 1140 ng·h/mL
- Cmax [5, 7]: 85.9 ng/mL
- T1/2 [5, 7]: 4.5 h
- AUC0–24 h Ratio KH176m/KH176 ([5]; KH176 25 mg/kg/dose BID oral, F, Day 28): 0.074
- AUC0–24 h [5, 8]: 1410 ng·h/mL
- Cmax [5, 8]: 123 ng/mL
- T1/2 [5, 8]: 6.2 h
- AUC0–24 h Ratio KH176m/KH176 ([5]; KH176 25 mg/kg/dose BID oral, M, Day 1): 0.075
- AUC0–24 h [5, 9]: 792 ng·h/mL
- Cmax [5, 9]: 92.7 ng/mL
- T1/2 [5, 9]: 2.3 h
- AUC0–24 h Ratio KH176m/KH176 ([5]; KH176 25 mg/kg/dose BID oral, M, Day 28): 0.064
- AUC0–24 h [5, 10]: 993 ng·h/mL
- Cmax [5, 10]: 126 ng/mL
- T1/2 [5, 10]: 13.3 h
- AUC0–24 h Ratio KH176m/KH176 ([5]; KH176 75 mg/kg/dose BID oral, F, Day 1): 0.073
- AUC0–24 h [5, 11]: 3090 ng·h/mL
- Cmax [5, 11]: 203 ng/mL
- T1/2 [5, 11]: 30.9 h
- AUC0–24 h Ratio KH176m/KH176 ([5]; KH176 75 mg/kg/dose BID oral, F, Day 28): 0.067
- AUC0–24 h [5, 12]: 5120 ng·h/mL
- Cmax [5, 12]: 305 ng/mL
- T1/2 [5, 12]: 12.9 h
- AUC0–24 h Ratio KH176m/KH176 ([5]; KH176 75 mg/kg/dose BID oral, M, Day 1): 0.080
- AUC0–24 h [5, 13]: 2640 ng·h/mL
- Cmax [5, 13]: 187 ng/mL
- T1/2 [5, 13]: 3.5 h
- AUC0–24 h Ratio KH176m/KH176 ([5]; KH176 75 mg/kg/dose BID oral, M, Day 28): 0.067
- AUC0–24 h [5, 14]: 3100 ng·h/mL
- Cmax [5, 14]: 265 ng/mL
- AUC0–24 h Ratio KH176m/KH176 ([5]; KH176 250 mg/kg/dose BID oral, F, Day 1): 0.073
- AUC0–24 h [5, 15]: 7630 ng·h/mL
- Cmax [5, 15]: 415 ng/mL
- AUC0–24 h Ratio KH176m/KH176 ([5]; KH176 250 mg/kg/dose BID oral, F, Day 28): 0.071
- AUC0–24 h [5, 16]: 17300 ng·h/mL
- Cmax [5, 16]: 913 ng/mL
- AUC0–24 h Ratio KH176m/KH176 ([5]; KH176 250 mg/kg/dose BID oral, M, Day 1): 0.055
- AUC0–24 h [5, 17]: 5170 ng·h/mL
- Cmax [5, 17]: 312 ng/mL
- T1/2 [5, 17]: 104.4 h
- AUC0–24 h Ratio KH176m/KH176 ([5]; KH176 250 mg/kg/dose BID oral, M, Day 28): 0.066
- AUC0–24 h [5, 18]: 10400 ng·h/mL
- Cmax [5, 18]: 777 ng/mL
- T1/2 [5, 18]: 6.5 h
- Potency (IC50) of KH176m relative to KH176, lipid peroxidation [6]: about 1000 fold
- IC50 ([6]; bodipy 581/591 C11): 71 nM
